Measurements as given in US11524968B2, “Heterocyclic compound as a protein kinase inhibitor” (HK inno.N Corporation, priority 2017, dated 2022).

Molecular target: JAK1 (Homo sapiens (Human), UniProt P23458)
Test: Analysis of JAK1 activity inhibition ability (ADP-Glo Kinase Assay)
Assay type: biochemical
Settings: JAK1 enzyme, ADP-Glo luminescence, ATP 250 uM, IRS-itide substrate, 30° C. 40 minutes; read-out: IC50
How it was run: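 ADP-Glo luminescence read-out of ADP production, with IC50 taken as the concentration halving JAK1 activity relative to control. Enzyme was incubated 40 min at 30 °C with compound, IRS-itide (40 ng/mL) and ATP (250 uM), concentrations as prepared in pH 7.5 Tris-HCl/MgCl2/BSA/DTT buffer.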

JAK1, sequence (P23458 whole entry): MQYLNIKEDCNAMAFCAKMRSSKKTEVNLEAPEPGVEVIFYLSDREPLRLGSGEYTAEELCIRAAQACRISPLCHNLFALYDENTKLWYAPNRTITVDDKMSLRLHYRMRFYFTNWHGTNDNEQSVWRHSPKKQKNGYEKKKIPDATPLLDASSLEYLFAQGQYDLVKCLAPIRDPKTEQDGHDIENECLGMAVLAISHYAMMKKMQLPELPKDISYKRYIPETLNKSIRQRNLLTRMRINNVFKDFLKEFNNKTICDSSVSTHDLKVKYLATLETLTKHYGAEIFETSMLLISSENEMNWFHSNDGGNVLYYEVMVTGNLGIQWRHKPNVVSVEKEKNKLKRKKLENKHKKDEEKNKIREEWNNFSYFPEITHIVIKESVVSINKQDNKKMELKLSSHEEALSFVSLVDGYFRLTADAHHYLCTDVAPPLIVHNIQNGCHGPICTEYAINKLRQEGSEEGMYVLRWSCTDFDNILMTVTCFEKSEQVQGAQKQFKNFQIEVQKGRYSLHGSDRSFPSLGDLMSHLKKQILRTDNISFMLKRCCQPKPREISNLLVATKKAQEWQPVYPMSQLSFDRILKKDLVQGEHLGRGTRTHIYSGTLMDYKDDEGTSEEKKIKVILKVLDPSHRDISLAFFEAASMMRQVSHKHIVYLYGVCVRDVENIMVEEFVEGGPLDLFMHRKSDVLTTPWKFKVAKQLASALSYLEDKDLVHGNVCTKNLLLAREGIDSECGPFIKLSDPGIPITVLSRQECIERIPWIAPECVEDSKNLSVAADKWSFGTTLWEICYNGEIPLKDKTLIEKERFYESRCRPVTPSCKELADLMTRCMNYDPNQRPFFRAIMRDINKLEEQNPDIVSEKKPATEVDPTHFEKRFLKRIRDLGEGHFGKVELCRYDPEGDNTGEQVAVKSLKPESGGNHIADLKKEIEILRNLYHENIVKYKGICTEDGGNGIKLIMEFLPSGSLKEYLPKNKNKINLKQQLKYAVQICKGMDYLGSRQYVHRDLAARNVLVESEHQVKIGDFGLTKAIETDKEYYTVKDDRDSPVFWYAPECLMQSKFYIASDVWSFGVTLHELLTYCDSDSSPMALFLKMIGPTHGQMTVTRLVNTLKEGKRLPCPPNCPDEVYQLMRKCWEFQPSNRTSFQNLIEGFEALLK

Compound	IC50 [nM]
N#CCCCS(=O)(=O)Nc1ccc(-c2nc(NC(=O)C3CC3)nc3[nH]cnc23)cc1 [Example 210, N-(6-(4-((3-cyanopropyl)sulfonamido)phenyl)-9H-purin-2-yl)cyclopropanecarboxamide]	> 200
O=C(Nc1nc(-c2ccc(NS(=O)(=O)CCCC(F)(F)F)cc2)c2nc[nH]c2n1)C1CC1 [Example 211, N-(6-(4-((4,4,4-trifluorobutyl)sulfonamido)phenyl)-9H-purin-2-yl)cyclopropanecarboxamide]	> 200
CCCS(=O)(=O)N1CC=C(c2cc(NC(=O)C3CC3)nc3[nH]ccc23)C1 [Example 212, N-(4-(1-(propylsulfonyl)-2,5-dihydro-1H-pyrrol-3-yl)-1H-pyrrolo[2,3-b]pyridin-6-yl)cyclopropanecarboxamide]	> 200
N#CC1(CS(=O)(=O)N2CC=C(c3cc(NC(=O)C4CC4)nc4[nH]ccc34)C2)CC1 [Example 213, N-(4-(1-(((1-cyanocyclopropyl)methyl)sulfonyl)-2,5-dihydro-1H-pyrrol-3-yl)-1H-pyrrolo[2,3-b]pyridin-6-yl)cyclopropanecarboxamide]	> 200
CCN(CC)S(=O)(=O)Nc1ccc(-c2cc(NC(=O)C3CC3)nc3[nH]ccc23)cc1 [Example 216, N-(4-(4-((N,N-diethylsulfamoyl)amino)phenyl)-1H-pyrrolo[2,3-b]pyridin-6-yl)cyclopropanecarboxamide]	20 to 200
CC1CN(S(=O)(=O)Nc2ccc(-c3cc(NC(=O)C4CC4)nc4[nH]ccc34)cc2)CC(C)O1 (stereo not drawn) [Example 220, N-(4-(4-((2,6-dimethylmorpholine)-4-sulfonamido)phenyl)-1H-pyrrolo[2,3-b]pyridin-6-yl)cyclopropanecarboxamide]	20 to 200
N#CC1CN(S(=O)(=O)Nc2ccc(-c3cc(NC(=O)C4CC4)nc4[nH]ccc34)cc2)C1 [Example 221, N-(4-(4-((3-cyanoazetidine)-1-sulfonamido)phenyl)-1H-pyrrolo[2,3-b]pyridin-6-yl)cyclopropanecarboxamide]	20 to 200
CC(C)N(C)S(=O)(=O)Nc1ccc(-c2cc(NC(=O)C3CC3)nc3[nH]ccc23)cc1 [Example 222, N-(4-(4-((N-isopropyl-N-methylsulfamoyl)amino)phenyl)-1H-pyrrolo[2,3-b]pyridin-6-yl)cyclopropanecarboxamide]	20 to 200
COCCN(C)S(=O)(=O)Nc1ccc(-c2cc(NC(=O)C3CC3)nc3[nH]ccc23)cc1 [Example 223, N-(4-(4-((N-(2-methoxyethyl)-N-methylsulfamoyl)amino)phenyl)-1H-pyrrolo[2,3-b]pyridin-6-yl)cyclopropanecarboxamide]	20 to 200
Cc1cc(NS(=O)(=O)NCC(F)(F)F)ccc1-c1cc(NC(=O)C2CC2)nc2[nH]ccc12 [Example 227, N-(4-(2-methyl-4-((N-(2,2,2-trifluoroethyl)sulfamoyl)amino)phenyl)-1H-pyrrolo[2,3-b]pyridin-6-yl)cyclopropanecarboxamide]	20 to 200
O=C(Nc1cc(-c2ccc(NS(=O)(=O)N3CCS(=O)(=O)CC3)cc2)c2cc[nH]c2n1)C1CC1 [Example 229, N-(4-(4-((1,1-dioxidothiomorpholine)-4-sulfonamido)phenyl)-1H-pyrrolo[2,3-b]pyridin-6-yl)cyclopropanecarboxamide]	< 20
CS(=O)(=O)N1CCN(S(=O)(=O)Nc2ccc(-c3cc(NC(=O)C4CC4)nc4[nH]ccc34)cc2)CC1 [Example 230, N-(4-(4-((4-(methylsulfonyl)piperazine)-1-sulfonamido)phenyl)-1H-pyrrolo[2,3-b]pyridin-6-yl)cyclopropanecarboxamide]	< 20
O=C(Nc1cc(C2=CCC(NS(=O)(=O)N3CCOCC3)CC2)c2cc[nH]c2n1)C1CC1 (stereo not drawn) [Example 231, N-(4-(4-(morpholine-4-sulfonamido)cyclohex-1-en-1-yl)-1H-pyrrolo[2,3-b]pyridin-6-yl)cyclopropanecarboxamide]	< 20
O=C(Nc1cc(C2=CCN(S(=O)(=O)NCC(F)(F)F)CC2)c2cc[nH]c2n1)C1CC1 [Example 232, N-(4-(1-(N-(2,2,2-trifluoroethyl)sulfamoyl)-1,2,3,6-tetrahydropyridin-4-yl)-1H-pyrrolo[2,3-b]pyridin-6-yl)cyclopropanecarboxamide]	20 to 200
CN(CC(F)(F)F)S(=O)(=O)N1CC=C(c2cc(NC(=O)C3CC3)nc3[nH]ccc23)CC1 [Example 233, N-(4-(1-(N-methyl-N-(2,2,2-trifluoroethyl)sulfamoyl)-1,2,3,6-tetrahydropyridin-4-yl)-1H-pyrrolo[2,3-b]pyridin-6-yl)cyclopropanecarboxamide]	20 to 200

More lines, now with the values ahead:

IC50 [nM]	Compound
< 20	O=C(Nc1cc(-c2ccc(NS(=O)(=O)N3CCOCC3)cc2)c2cc[nH]c2n1)C1CC1 [Example 214, N-(4-(4-(morpholine-4-sulfonamido)phenyl)-1H-pyrrolo[2,3-b]pyridin-6-yl)cyclopropanecarboxamide]
< 20	CCN(C)S(=O)(=O)Nc1ccc(-c2cc(NC(=O)C3CC3)nc3[nH]ccc23)cc1 [Example 215, N-(4-(4-((N-ethyl-N-methylsulfamoyl)amino)phenyl)-1H-pyrrolo[2,3-b]pyridin-6-yl)cyclopropanecarboxamide]
< 20	CN(C1CC1)S(=O)(=O)Nc1ccc(-c2cc(NC(=O)C3CC3)nc3[nH]ccc23)cc1 [Example 217, N-(4-(4-((N-cyclopropyl-N-methylsulfamoyl)amino)phenyl)-1H-pyrrolo[2,3-b]pyridin-6-yl)cyclopropanecarboxamide]
< 20	O=C(Nc1cc(-c2ccc(NS(=O)(=O)N3CCCC3)cc2)c2cc[nH]c2n1)C1CC1 [Example 218, N-(4-(4-(pyrrolidine-1-sulfonamido)phenyl)-1H-pyrrolo[2,3-b]pyridin-6-yl)cyclopropanecarboxamide]
< 20	O=C(Nc1cc(-c2ccc(NS(=O)(=O)N3CCCCC3)cc2)c2cc[nH]c2n1)C1CC1 [Example 219, N-(4-(4-(piperidine-1-sulfonamido)phenyl)-1H-pyrrolo[2,3-b]pyridin-6-yl)cyclopropanecarboxamide]
< 20	O=C(Nc1cc(-c2ccc(NS(=O)(=O)N3CCCCC3)c(F)c2)c2cc[nH]c2n1)C1CC1 [Example 224, N-(4-(3-fluoro-4-(piperidine-1-sulfonamido)phenyl)-1H-pyrrolo[2,3-b]pyridin-6-yl)cyclopropanecarboxamide]
< 20	O=C(Nc1cc(-c2ccc(NS(=O)(=O)N3CCCC3)c(F)c2)c2cc[nH]c2n1)C1CC1 [Example 225, N-(4-(3-fluoro-4-(pyrrolidine-1-sulfonamido)phenyl)-1H-pyrrolo[2,3-b]pyridin-6-yl)cyclopropanecarboxamide]
< 20	O=C(Nc1cc(-c2ccc(NS(=O)(=O)N3CCOCC3)c(F)c2)c2cc[nH]c2n1)C1CC1 [Example 226, N-(4-(3-fluoro-4-(morpholine-4-sulfonamido)phenyl)-1H-pyrrolo[2,3-b]pyridin-6-yl)cyclopropanecarboxamide]
< 20	Cc1cc(NS(=O)(=O)N(C)CC(F)(F)F)ccc1-c1cc(NC(=O)C2CC2)nc2[nH]ccc12 [Example 228, N-(4-(2-methyl-4-((N-methyl-N-(2,2,2-trifluoroethyl)sulfamoyl)amino)phenyl)-1H-pyrrolo[2,3-b]pyridin-6-yl)cyclopropanecarboxamide]
